In patent publication US12594258B2, “Inhibitors of MHC-I Nef downmodulation for treating HIV” (priority 2019, dated 2026):

Experiments:
AP-1:Nef:MHC-I complex = assay: GST-tagged MHC-I cytoplasmic tail pull down assay; format: binding
Text: The His6- and GST-tagged AP-1 core, mouse AP1M1 (157-423) (referred as μ1-CTD), human Arf1 (17-181)-Q71L, human MHC-I (338-365)-NL4-3 Nef, HIV-1 NL4-3 Nef constructs and protein purification were previously described. For GST pull down assay, codon-optimized human MHC-I (338-365) was subcloned into pGST parallel2 vector using BamHI/Xhol sites, fused an N-terminal GST tag and a TEV cleavage site. PCR encoding HIV-1 Nef or SlVsmm Nef fused with GFP was subcloned into LIC 2BT vector (Macrolab), expressed as a TEV-cleavable N-terminal His6 tag and C-terminal uncleavable GFP tag.
GST tagged MHC-I tail was expressed in BL21 (DE3) star cells by induction at 20° C. overnight. The purification was carried out using glutathione-Sepharose 4B resin, the elution was then subjected to a HiLoad 16/60 Superdex 75 column in the buffer of 20 mM Tris pH 8, 150 mM NaCl, 0.1 mM TCEP.

[1] = CMA concentration in mouse plasma and lymph nodes by mass spectrometry; format: in vivo, mice; settings: 2 hours after the final dose
Method: FIG. 8A is a schematic representation of experiments for FIG. 8B-D. Five mice per group received injections of CMA every 2 days for 10 doses. Blood plasma and lymph nodes were harvested from mice sacrificed 2 hours after the final injection.
FIG. 8D is a summary graph of mass spectrometry data quantifying the concentration of CMA in blood plasma from mice in each Group A and Group B.
FIG. 8E is a summary graph of mass spectrometry data quantifying the concentration of CMA in lymph nodes from mice in each Group A and Group B. Points represent the 5 individual mice within each group. LOD=limit of detection. Open circles represent samples with CMA below the limit of detection.
Mouse in vivo Assays. To further examine the tolerability of CMA, preliminary studies were performed in two groups of mice injected with different doses of CMA every other day for 18 days (FIG. 8A). […] In a separate experiment, plasma harvested from treated mice inhibited Nef in our in vitro assay (FIG. 8F). Taken together, these promising preliminary studies provide evidence that CMA is both efficacious and tolerable in vivo.

[2] = system: HIV-infected primary CD4+ T cells; assay: Flow cytometric CTL killing assay; format: cell-based, human
Text: CTL clones were isolated by limiting dilution from HIV-1- infected individuals. […] The CTL clones were maintained in culture with periodic re-stimulation as previously described except for the following changes; CTL clones were stimulated with anti-CD3 clone 12F6 (NIH AIDS Reagent Program) and cultured with IL-2 (NIH AIDS Reagent Program, Hoffman-La Roche). Peripheral blood mononuclear feeder cells were isolated from leukopaks (New York Blood Center) and X-irradiated with […] in R10 medium. Irradiations were performed using a Kimtron IC 225(Kimtron Medical) at a dose rate of approximately 2 Gy/min in the University of Michigan Comprehensive Cancer Center Experimental Irradiation Core (Ann Arbor, Mich.). CTL clones 115B15 and 161JXA14 both recognize HIV gag amino acids 77-85; SLYNTVATL presented by MHC-I HLA-A2 (71).
CTL elimination assays were performed as previously described with the following modifications: 72 hours post-infection primary CD4^+ T cells were stained with CellTracker Green (Fisher, c7025) according to manufacturer's protocol and treated with 0.5 nM CMA or solvent control for 24 hours. 50,000 target cells were used per condition, and following the 4 hours of co-culture, the cells were stained with DAPI as a viability dye in addition to anti-PLAP and BB7.2 antibodies. […]

[3] = system: Nef alleles from HIV clades A, B, C, D, F, and F/B and SIV; assay: Nef alleles of diverse HIV clades and SIV (MSCV-IRES-GFP) in CEM cells expressing MHC-I alleles; format: cell-based
Method: (ii) MSCV: Murine stem cell virus internal ribosome entry site GFP (pMIG) constructs containing various nef alleles were generated as previously described. Retroviral supernatants were prepared using BOSC cells transfected with the pMIG constructs, the retrovirus packaging vector pCL-Eco (65) and pHCMV-G using PEI as described above for HIV. Viral supernatants were collected 48 h post-transfection, clarified by centrifugation, stored at −80° C., and transductions were performed as described for HIV constructs.

CEM-A2 cells = assay: Lysotracker Red and Nef activity in CEM-A2 cells; format: cell-based, human; settings: 1.25 nM
Method: Cells were treated with plecomacrolides at a density of 1×10^6 cells/mL for 24 hours, then treated with 100 nM LysoTracker Red DND-99 (Fisher, L7528) in PBS at a density of 1×10^6 cells/mL for 1 hour at 37° C., washed twice in PBS, and fixed in 2% PFA before flow cytometric analysis on a BioRad Ze5 flow cytometer.
To test this directly, CEM-A2 cells transduced with an adenoviral vector expressing Nef were used. This system has been used to study the formation of the AP-1:Nef:MHC-I complex under conditions where ammonium chloride prevents lysosomal degradation. Higher concentrations of CMA were required for reversal of Nef activity in CEM cells. […] This is functionally similar to 0.5 nM CMA treatment in CD4^+ T cells.

C/C=C/[C@H]1O[C@@](O)([C@@H](C)[C@H](O)[C@H](C)[C@H]2OC(=O)/C(OC)=C/C(C)=C/[C@@H](C)[C@@H](O)[C@@H](CC)[C@@H](O)[C@H](C)C/C(C)=C/C=C/[C@@H]2OC)C[C@@H](O[C@H]2C[C@@H](O)[C@H](OC(N)=O)[C@@H](C)O2)[C@@H]1C [CMA, concanamycin A]
pulldown of NL4-3 Nef, SIV Nef or AP-1 μ1-CTD by GST-tagged MHC-I cytoplasmic tail (AP-1:Nef:MHC-I complex): did not alter pulldown
drug concentrations in plasma and lymph nodes [1]: higher than those required to counteract Nef activity in vitro
CTL-mediated elimination of PLAP+ cells infected with Nef-competent virus ([2]; 0.5 nM, 24 hours): efficiently eliminated by CTLs
clearance of SL9 peptide-pulsed target cells by anti-HIV CTLs ([2]; in the presence of 0.5 nM): No change in the clearance
surface expression of HA-tagged HLA-A*02, HLA-B*08, HLA-B*27, HLA-B*57 ([3]; CEM cells, each Nef allele): restored MHC-I surface expression in every context
HLA-A2 expression in cells expressing diverse nef alleles ([3]; CEM-A2 cells): restored expression of HLA-A2 in cells expressing each nef allele
Nef inhibition versus intracellular acidification (CEM-A2 cells): inhibited Nef without significantly altering intracellular acidification
